Assay results as given in patent publication US9187524B2, “Broad spectrum antibiotic arylomycin analogs” (The Scripps Research Institute, priority 2010, dated 2015).

Assays:
S. epidermidis = test: Selection of arylomycin resistant S. epidermidis; assay type: cell-based; conditions: growth in the presence of 2 μg/ml (8×MIC)
[1] = test system: S. epidermidis PAS9002 (SPase S31P); test: microbe, parasite or virus in culture; assay type: cell-based

Q: Which results are given for CCCCCCCCCCCCCCCC(=O)N(C)[C@H](CO)C(=O)N[C@H](C)C(=O)NCC(=O)N(C)[C@@H]1C(=O)N[C@@H](C)C(=O)N[C@H](C(=O)O)Cc2ccc(O)c(c2)-c2cc1ccc2O [Arylomycin C16]?
A: frequency of resistant mutants (S. epidermidis): 4 per 109 viable cells; MIC ([1]; Staphylococcus epidermidis, read-out: MIC, S. epidermidis PAS9002): > 128 µg/mL; fold elevated MIC compared to the wild type strain, Ser to Pro at position 31 ([1]; remainder of selected S. epidermidis mutants): greater than 256 fold
